Results taken from patent US12115232B2, “Preparation for magnetic resonance diagnostics for oncological diseases, comprising deuterated 3-O-methylglucose, and diagnostic method using said preparation” (SOLVEX LIMITED LIABILITY COMPANY, priority 2017, dated 2024).

How the values were obtained:
breast carcinoma 4T1 = system: breast carcinoma 4T1
Method: In the examples below, the MRI scanner Bruker BioSpec BC70/30 USR with the constant field of 7.05 T, equipped with a surface transmitting-and-receiving coil with a diameter of 3 cm and a scan depth of ca. 1 cm was used.
To register deuterium image the FLASH (Fast low angle shot) pulse sequence was used.
For experiments with the broadband excitation the following settings were used: the excitation frequency was determined by ^2H NMR spectrum and was sfo1≈46.1745 MHz, a rectangular excitation pulse with a width of 1300 Hz and a power of 36 dB, the flip angle FA=30°, the repetition time TR=11.8 MS, echo time TE=4.4 msec, a scan area of 10 cm×10 cm, scan matrix, 50×50, slice thickness 3 cm, bandwidth of 12500 Hz, total scan time 10 minutes (1030 averages).
In this example, experiments were conducted on mice Balb/c inoculated with breast carcinoma 4T1 (injection of 5×10^5 cells/60 μl under the left front paw for 10 days before experiment) and in healthy Balb/c mice.
A solution of 20-72 mg of 3-O-CD3-glucose was administered to an animal weighing 20 g was injected intraperitoneally, intravenously or via gavage (intraperitoneal: 0.5 ml of a saline solution; intravenous: 0.2 ml of water; oral: 0.25 ml of a saline solution). After injection, the animal was kept in a separate cage with free access to food and water within specified time. For imaging the animal was immobilized with isoflurane. The surface transmitting-and-receiving coil was fixed on the body of the mouse from the dorsal side in the thoracic region.

tumor = assay: Preliminary 2H MRI tumor visualization experiments with glucose derivatives; format: in vivo
Excerpt: The authors of this invention have studied various derivatives of glucose as a potential diagnostic agent. It was discovered that not all glucose derivatives can be used for the diagnostics of oncological diseases through ^2H MRI or ^2H NMR.

| Compound | accumulation in tumor by 2H MRI after intravenous injection (breast carcinoma 4T1; 20 mg intravenous, 50 minutes, mouse no. 3 (FIG. 9)) | location of agent by 2H MRI after oral administration, late (breast carcinoma 4T1; 70 mg oral, 100 min (text: 115 min), mouse no. 4 (FIG. 10)) | accumulation in tumor visualized by 2H MRI (breast carcinoma 4T1; 72 mg intraperitoneal, 20-320 min after administration, mouse no. 2 (FIGS. 5-8)) | 2H MRI signal in control mouse without tumors (breast carcinoma 4T1; 72 mg intraperitoneal, 40 minutes after administration, mouse no. 1) | valid range of the diagnostic agent doses (breast carcinoma 4T1; mouse, FIGS. 5-9) | tumor visualization by 2H MRI (tumor) |
| --- | --- | --- | --- | --- | --- | --- |
| [2H]C([2H])([2H])O[C@H]1[C@H](O)[C@@H](CO)OC(O)[C@@H]1O (stereo partly drawn) [3-O-CD3-glucose] | accumulation of 3-O-CD3-glucose in the tumor | accumulated in tumors | accumulated in the tumor in sufficient concentration to be visualized | missing an area with a strong signal of deuterium | 1-3.5 g per 1 kg of animal weight |  |
| OCC1OC(O)C(O)C(O)C1O (stereo not drawn) [6,6-D2-glucose] |  |  |  |  |  | not possible to accurately visualize the tumor |
